Values quoted from earlier work in patent US4380638A, “Chemical compounds” (Bristol-Myers Company, priority 1981, dated 1983).

Experiments:
peptic ulcer disease = settings: Gray et al., Lancet, 1, 8001 (1977)
[1] = agranulocytosis
H2 -receptor [2] = tested on: H2 -receptor
H2 -receptor [3] = settings: man

Row | oral absorption | Compound | clinical effectiveness in peptic ulcer disease (peptic ulcer disease) | toxicity [1] | H2-antagonist potency/effectiveness relative to another drug (H2 -receptor [2]) | oral activity (H2 -receptor [3])
1 | poor | CNC(=S)NCCCCc1cnc[nH]1 [Burimamide] | – | – | – | –
2 | – | CNC(=NC#N)NCCSCc1[nH]cnc1C [Cimetidine] | effective therapeutic agent in the treatment of peptic ulcer disease | without producing agranulocytosis | as effective an H2 -antagonist as metiamide | –
3 | – | CNC(=S)NCCSCc1[nH]cnc1C [Metiamide] | – | agranulocytosis | more potent than burimamide | orally active in man
